Data published in patent US20230407243A1, “GENETIC PLATFORM TO INVESTIGATE THE FUNCTIONS OF BACTERIAL DRUG EFFLUX PUMPS” (priority 2022, published 2023).
Read-outs that look alike come from different tables or passages of the source.

Tests used:
Type in all cases: cell-based, Escherichia coli
EKO-35-Pore = assay: MIC susceptibility profiling, porinated strain; settings: for Fold changes of MICs: EKO-35-Pore compared to EKO-35-Pore (reference); for MIC: Escherichia coli, technical duplicate
Outline: (§1)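 Strains carry the fhuA ΔC/Δ4L pore integrated between glmS and pstS under a constitutive promoter, with pore activity checked by vancomycin susceptibility. Overnight LB cultures were adjusted in PBS pH 7.4 to OD600 ~1.0 and diluted 1/2000 into MHB II. 2-fold compound titrations were read by OD600 after 18 h at 37 °C.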

ΔtolC-Pore = assay: microbe, parasite or virus in culture; settings: for MIC: Escherichia coli, 18 h, read-out: Minimum inhibitory concentration, ΔtolC-Pore; for Minimum inhibitory concentration (MIC), Pore ΔtolC: Table 10, with pore, technical duplicate
Outline: as §1

wild-type (WT) K-12-Pore = assay: microbe, parasite or virus in culture; settings: Escherichia coli, technical duplicate
Outline: as §1

[1] = test system: wild-type E. coli K-12 str. BW25113; assay: microbe, parasite or virus in culture; settings: Escherichia coli, BW25113, technical duplicate
Outline: (§2)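 Strains are grown overnight in LB at 37 °C, adjusted to OD600 ~1.0 in PBS (pH 7.4) and diluted 1/2000 into MHB II. They are incubated with twofold compound dilutions for 18 h at 37 °C. MIC comes from background-subtracted OD600.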

E. coli ΔtolC = assay: microbe, parasite or virus in culture; settings: for MIC: Escherichia coli, 18 h, read-out: Minimum Inhibitory Concentration, ΔtolC; for Minimum inhibitory concentration (MIC), ΔtolC: Table 10, without pore, technical duplicate
Outline: as §2

E. coli EKO-35 = assay: microbe, parasite or virus in culture; settings: for Fold change of MICs: EKO-35 compared to EKO-35 (reference); for MIC: Escherichia coli, EKO35, technical duplicate
Outline: as §2

EKO-35 araC::macAB = assay: MIC susceptibility profiling, efflux platform; settings: for Fold change of MICs: EKO-35 araC::macAB compared to EKO-35
Outline: as §2

EKO-35 araC::emrAB = assay: MIC susceptibility profiling, efflux platform; settings: for Fold change of MICs: EKO-35 araC::emrAB compared to EKO-35
Outline: as §2

EKO-35 araC::acrEF = assay: MIC susceptibility profiling, efflux platform; settings: for Fold change of MICs: EKO-35 araC::acrEF compared to EKO-35
Outline: as §2

EKO-35 araC::macAB Pore = assay: MIC susceptibility profiling, porinated efflux platform; settings: for Fold changes of MICs: EKO-35 araC::macAB Pore compared to EKO-35-Pore
Outline: as §1

EKO-35 araC::mdtEF Pore = assay: as above; settings: for Fold changes of MICs: EKO-35 araC::mdtEF Pore compared to EKO-35-Pore; for MIC: Escherichia coli, Table 14A, porinated, technical duplicate, read-out: Minimum inhibitory concentration, EKO-35 araC::mdtEF Pore
Outline: as §1

EKO-35 araC::acrD Pore = assay: as above; settings: for Fold changes of MICs: EKO-35 araC::acrD Pore compared to EKO-35-Pore; for MIC: Escherichia coli, Table 14A, porinated, technical duplicate, read-out: Minimum inhibitory concentration, EKO-35 araC::acrD Pore
Outline: as §1

EKO-35 araC::mexCD Pore = assay: as above; settings: for Fold changes of MICs: EKO-35 araC::mexCD Pore compared to EKO-35-Pore; for MIC: Escherichia coli, EKO-35 araC::mexCD Pore, technical duplicate, read-out: Minimum inhibitory concentration
Outline: as §1

EKO-35 araC::acrEF Pore = assay: as above; settings: for Fold changes of MICs: EKO-35 araC::acrEF Pore compared to EKO-35-Pore; for MIC: Escherichia coli, Table 14A, porinated, technical duplicate, read-out: Minimum inhibitory concentration, EKO-35 araC::acrEF Pore
Outline: as §1

EKO-35 araC::acrB Pore = assay: as above; settings: EKO-35 araC::acr-B Pore compared to EKO-35-Pore
Outline: as §1

EKO-35 araC::emrAB Pore = assay: as above; settings: for Fold changes of MICs: EKO-35 araC::emrAB Pore compared to EKO-35-Pore; for MIC: Escherichia coli, EKO-35 araC::emrAB Pore, technical duplicate, read-out: Minimum inhibitory concentration
Outline: as §1

[2] = test system: EKO-35 araC::acrBD408A Pore; assay: as above; settings: for Fold changes of MICs: EKO-35 araC::acrBD408A Pore compared to EKO-35-Pore; for MIC: Escherichia coli, EKO-35 araC::acrBD408A Pore, technical duplicate, read-out: Minimum inhibitory concentration
Outline: as §1

EKO-35 araC::mdtBC Pore = assay: as above; settings: for Fold changes of MICs: EKO-35 araC::mdtBC Pore compared to EKO-35-Pore; for MIC: Escherichia coli, EKO-35 araC::mdtBC Pore, technical duplicate, read-out: Minimum inhibitory concentration
Outline: as §1

EKO-35 araC::emrKY Pore = assay: as above; settings: for Fold changes of MICs: EKO-35 araC::emrKY Pore compared to EKO-35-Pore; for MIC: Escherichia coli, EKO-35 araC::emrKY Pore, technical duplicate, read-out: Minimum inhibitory concentration
Outline: as §1

[3] = Table 10, with pore, read-out: Minimum inhibitory concentration (MIC), Pore EKO-35
[4] = Table 14A, porinated, read-out: Minimum inhibitory concentration, EKO-35-Pore
[5] = Table 10, with pore, read-out: Minimum inhibitory concentration (MIC), Pore K-12
[6] = Table 14A, porinated, read-out: Minimum inhibitory concentration, K-12 (WT)-Pore
[7] = Table 10, without pore, read-out: Minimum inhibitory concentration (MIC), K-12
[8] = Table 13A, non-porinated, read-out: Minimum Inhibitory Concentration, K-12
[9] = Table 10, without pore, read-out: Minimum inhibitory concentration (MIC), EKO-35
[10] = Table 13A, non-porinated, read-out: Minimum Inhibitory Concentration, EKO-35

| Compound | Fold changes of MICs (EKO-35-Pore) [fold] | MIC (EKO-35-Pore; [3]) [µg/mL] | MIC (EKO-35-Pore; [4]) [µg/mL] | MIC (ΔtolC-Pore) [µg/mL] | Minimum inhibitory concentration (MIC), Pore ΔtolC (ΔtolC-Pore) [µg/mL] | MIC (wild-type (WT) K-12-Pore; [5]) [µg/mL] | MIC (wild-type (WT) K-12-Pore; [6]) [µg/mL] | MIC [1, 7] [µg/mL] | MIC [1, 8] [µg/mL] | MIC (E. coli ΔtolC) [µg/mL] | Minimum inhibitory concentration (MIC), ΔtolC (E. coli ΔtolC) [µg/mL] | Fold change of MICs (E. coli EKO-35) [fold] | MIC (E. coli EKO-35; [9]) [µg/mL] | MIC (E. coli EKO-35; [10]) [µg/mL] | Fold change of MICs (EKO-35 araC::macAB) [fold] | Fold change of MICs (EKO-35 araC::emrAB) [fold] | Fold change of MICs (EKO-35 araC::acrEF) [fold] | Fold changes of MICs (EKO-35 araC::macAB Pore) [fold] | Fold changes of MICs (EKO-35 araC::mdtEF Pore) [fold] | MIC (EKO-35 araC::mdtEF Pore) [µg/mL] | further results |
| --- | --- | --- | --- | --- | --- | --- | --- | --- | --- | --- | --- | --- | --- | --- | --- | --- | --- | --- | --- | --- | --- |
| CC(=O)O[C@H]1C[C@@]2(C)[C@@H](C[C@@H](O)[C@H]3[C@@]4(C)CC[C@@H](O)[C@@H](C)[C@@H]4CC[C@@]32C)/C1=C(\CCC=C(C)C)C(=O)O [fusidic acid] | 1 | 0.391 | 0.391 | 0.391 | 0.391 | 100 | 100 | 400 | 400 | 3.12 | 3.125 | 1 | 3.12 | 3.12 | 1 | 2 | 16 | 1 | 8 | 3.12 | MIC (EKO-35 araC::macAB; Escherichia coli, Table 13B, non-porinated, technical duplicate, read-out: Minimum Inhibitory Concentration, EKO-35 araC::macAB): 3.12 µg/mL; MIC (EKO-35 araC::emrAB; Escherichia coli, Table 13B, non-porinated, technical duplicate, read-out: Minimum Inhibitory Concentration, EKO-35 araC::emrAB): 6.25 µg/mL; MIC (EKO-35 araC::acrEF; Escherichia coli, Table 13A, non-porinated, technical duplicate, read-out: Minimum Inhibitory Concentration, EKO-35 araC::acrEF): 50 µg/mL; MIC (EKO-35 araC::macAB Pore; Escherichia coli, EKO-35 araC::macAB Pore, technical duplicate, read-out: Minimum inhibitory concentration): 0.391 µg/mL; Fold changes of MICs (EKO-35 araC::acrD Pore): 32 fold; MIC (EKO-35 araC::acrD Pore): 12.5 µg/mL; Fold changes of MICs (EKO-35 araC::mexCD Pore): 4 fold; MIC (EKO-35 araC::mexCD Pore): 1.56 µg/mL; Fold changes of MICs (EKO-35 araC::acrEF Pore): 32 fold; MIC (EKO-35 araC::acrEF Pore): 12.5 µg/mL; Fold changes of MICs (EKO-35 araC::acrB Pore): 256 fold; Fold changes of MICs (EKO-35 araC::emrAB Pore): 4 fold; efflux pump-mediated resistance vs EKO-35-Pore (EKO-35 araC::emrAB Pore; EmrAB, porinated strain): associated with resistance; MIC (EKO-35 araC::emrAB Pore): 1.56 µg/mL; Fold changes of MICs [2]: 1 fold; MIC [2]: 0.391 µg/mL; Fold changes of MICs (EKO-35 araC::mdtBC Pore): 1 fold; MIC (EKO-35 araC::mdtBC Pore): 0.391 µg/mL; Fold changes of MICs (EKO-35 araC::emrKY Pore): 1 fold; MIC (EKO-35 araC::emrKY Pore): 0.391 µg/mL |
| NC[C@H]1O[C@H](O[C@H]2[C@H](O)[C@@H](O[C@H]3O[C@H](CO)[C@@H](O)[C@H](N)[C@H]3O)[C@H](N)C[C@@H]2N)[C@H](O)[C@@H](O)[C@@H]1O [kanamycin] | 1 | 1.56 | 1.56 | 1.56 | 1.563 | 3.12 | 3.12 | 3.12 | 3.12 | 1.56 | 1.563 | 1 | 3.12 | 3.12 | 1 | 1 | 1 | 2 | 1 | 1.56 | Fold changes of MICs (EKO-35 araC::acrD Pore): 1 fold; MIC (EKO-35 araC::acrD Pore): 1.56 µg/mL; Fold changes of MICs (EKO-35 araC::mexCD Pore): 1 fold; MIC (EKO-35 araC::mexCD Pore): 1.56 µg/mL; Fold changes of MICs (EKO-35 araC::acrEF Pore): 1 fold; MIC (EKO-35 araC::acrEF Pore): 1.56 µg/mL; Fold changes of MICs (EKO-35 araC::acrB Pore): 2 fold; Fold changes of MICs (EKO-35 araC::emrAB Pore): 1 fold; MIC (EKO-35 araC::emrAB Pore): 1.56 µg/mL; Fold changes of MICs [2]: 1 fold; MIC [2]: 0.781 µg/mL; Fold changes of MICs (EKO-35 araC::mdtBC Pore): 1 fold; MIC (EKO-35 araC::mdtBC Pore): 1.56 µg/mL; Fold changes of MICs (EKO-35 araC::emrKY Pore): 1 fold; MIC (EKO-35 araC::emrKY Pore): 1.56 µg/mL |
